Results reported in BindingDB's records for doi:10.1021/jm00161a033 (1986).

target: Aldose reductase (Oryctolagus cuniculus); test: In vitro inhibition of rabbit lens aldose reductase.

IC50 [nM] | SMILES
770 | O=C1Cc2ccc3c(c2O1)CCc1ccccc1C3=O [11,12-Dihydro-3H-1-oxa-benzo[4,5]cyclohepta[1,2-e]indene-2,6-dione]
830 | O=C(O)Cc1ccc2c(c1)CCc1ccc(O)cc1C2=O [(7-Hydroxy-5-oxo-10,11-dihydro-5H-dibenzo[a,d]cyclohepten-2-yl)-acetic acid]
160000 | O=C(O)Cc1ccc2c(c1)CCc1ccccc1C2=O [(5-Oxo-10,11-dihydro-5H-dibenzo[a,d]cyclohepten-2-yl)-acetic acid]
2700 | CC(C(=O)O)c1cc(O)c2c(=O)c3ccccc3ccc2c1 (stereo not given) [2-(4-Hydroxy-5-oxo-5H-dibenzo[a,d]cyclohepten-2-yl)-propionic acid]
1000 | O=C(O)Cc1ccc2c(=O)c3ccccc3ccc2c1 [(5-Oxo-5H-dibenzo[a,d]cyclohepten-2-yl)-acetic acid]
330 | O=C(O)Cc1ccc2c(c1)OCc1ccccc1C2=O [Oxepinac]
210 | CC(C(=O)O)c1cc(O)c2c(c1)CCc1ccccc1C2=O (stereo not given) [2-(4-Hydroxy-5-oxo-10,11-dihydro-5H-dibenzo[a,d]cyclohepten-2-yl)-propionic acid]
760 | O=C(O)Cc1cc(O)c2c(=O)c3ccccc3ccc2c1 [(4-Hydroxy-5-oxo-5H-dibenzo[a,d]cyclohepten-2-yl)-acetic acid]
280000 | O=C(O)Cc1ccc2c(c1)CCc1cccc(O)c1C2=O [(6-Hydroxy-5-oxo-10,11-dihydro-5H-dibenzo[a,d]cyclohepten-2-yl)-acetic acid]
110000 | O=C(O)Cc1cc(O)c2c(c1)CCc1ccccc1C2=O [(4-Hydroxy-5-oxo-10,11-dihydro-5H-dibenzo[a,d]cyclohepten-2-yl)-acetic acid]
